Experimental data from patent US11254686B1 (Corvus Pharmaceuticals, Inc., priority 2017, dated 2022).

What was measured:
[1] = target: adenosine A2B receptor (Homo sapiens (Human), UniProt P29275); assay: Adenosine receptor activity assay (Table 1), A2B activity; format: biochemical; conditions: for IC50: read-out: Ave A2B cAMP IC50
[2] = target: adenosine A2A receptor (Homo sapiens (Human), UniProt P29274); assay: Adenosine receptor activity assay (Table 1), A2A activity; format: biochemical; conditions: read-out: Ave A2A cAMP IC50
Chain of adenosine A2A receptor (P29274 whole entry): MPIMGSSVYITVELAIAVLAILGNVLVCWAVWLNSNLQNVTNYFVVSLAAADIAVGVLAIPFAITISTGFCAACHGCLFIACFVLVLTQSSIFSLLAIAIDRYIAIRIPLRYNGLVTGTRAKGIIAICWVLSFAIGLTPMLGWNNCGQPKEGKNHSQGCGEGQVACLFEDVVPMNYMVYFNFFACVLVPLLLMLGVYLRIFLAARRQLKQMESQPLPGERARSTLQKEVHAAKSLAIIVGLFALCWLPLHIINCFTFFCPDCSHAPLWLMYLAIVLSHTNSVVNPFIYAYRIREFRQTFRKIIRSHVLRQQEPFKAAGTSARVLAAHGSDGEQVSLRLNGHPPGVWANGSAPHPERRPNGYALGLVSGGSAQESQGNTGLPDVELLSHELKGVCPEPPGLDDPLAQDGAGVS

[3] = A2A activity to A2B activity (A2A/A2B)
[4] = A2A activity to the A2B activity, A2A/A2B

Chain of adenosine A2B receptor (P29275 whole entry): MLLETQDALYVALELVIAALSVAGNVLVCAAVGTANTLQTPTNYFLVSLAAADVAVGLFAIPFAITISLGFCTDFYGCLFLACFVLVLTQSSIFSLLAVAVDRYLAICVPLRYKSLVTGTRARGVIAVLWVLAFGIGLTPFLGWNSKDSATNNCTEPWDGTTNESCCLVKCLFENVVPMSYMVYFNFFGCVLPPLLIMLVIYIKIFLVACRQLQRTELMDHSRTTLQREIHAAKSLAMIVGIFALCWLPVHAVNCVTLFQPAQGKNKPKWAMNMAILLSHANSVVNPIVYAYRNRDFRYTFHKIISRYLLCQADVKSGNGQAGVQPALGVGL

Compound | Ratio [1, 3] | IC50 [1] [nM] | IC50 [2] [nM] | Ratio [1, 4]
C[C@H](Nc1nc(C(=O)N2CC[C@H](S(C)(=O)=O)C2)c2sccc2n1)c1ccccn1 [Example Z274] | 1.11 | 100 to 500 | 100 to 500 | –
COc1cc(F)cc(CNc2nc(C(=O)N3CC(C)(O)C3)c3sccc3n2)c1 [Example Z136, (2-((3-Fluoro-5-methoxybenzyl)amino)thieno[3,2-d]pyrimidin-4-yl)(3-hydroxy-3-methylazetidin-1-yl)methanone] | 11.51 | 50 to 100 | > 500 | –
CN(C(=O)c1nc(NCc2cncc(F)c2)nc2ccsc12)C1CCC(C)(C)C1 (centres unmarked) [Example Z22, N-(3,3-Dimethylcyclopentyl)-2-(((5-fluoropyridin-3-yl)methyl)amino)-N-methylthieno[3,2-d]pyrimidine-4-carboxamide] | 7.49 | > 500 | > 500 | –
C[C@H](Nc1nc(C(=O)N2CCN(C(=O)N(C)C)C2)c2sccc2n1)c1cncc(F)c1 [Example Z590, (S)-3-(2-((1-(5-Fluoropyridin-3-yl)ethyl)amino)thieno[3,2-d]pyrimidine-4-carbonyl)-N,N-dimethylimidazolidine-1-carboxamide] | – | 10 to 50 | 100 to 500 | 11.22
CCC(NC(=O)c1nc(NC(CC)c2cccnc2)nc2ccsc12)c1cccnc1 (centres unmarked) [Example Z23, N-(1-(Pyridin-3-yl)propyl)-2-((1-(pyridin-3-yl)propyl)amino)thieno[3,2-d]pyrimidine-4-carboxamide] | 5.63 | > 500 | > 500 | –
C[C@H](Nc1nc(C(=O)N2CC(O)C2)c2sc(N)cc2n1)c1ccccn1 [Example Z205, (S)-(6-Amino-2-((1-(pyridin-2-yl)ethyl)amino)thieno[3,2-d]pyrimidin-4-yl)(3-hydroxyazetidin-1-yl)methanone] | 27.10 | 10 to 50 | 100 to 500 | –
COc1cncc(CNc2nc(C(=O)N3CC(O)C3)c3sccc3n2)c1 [Example Z119, (3-Hydroxyazetidin-1-yl)(2-(((5-methoxypyridin-3-yl)methyl)amino)thieno[3,2-d]pyrimidin-4-yl)methanone] | 2.08 | 100 to 500 | > 500 | –
C[C@H](Nc1nc(C(=O)NCCc2ccc(Cl)cc2)c2sccc2n1)c1cncc(F)c1 [Example Z385, (S)—N-(4-Chlorophenethyl)-2-((1-(5-fluoropyridin-3-yl)ethyl)amino)thieno[3,2-d]pyrimidine-4-carboxamide] | 7.44 | 50 to 100 | > 500 | –
N[C@@H]1CCN(C(=O)c2nc(NCc3cncc(F)c3)nc3ccsc23)C1 [Example Z361, (R)-(3-Aminopyrrolidin-1-yl)(2-(((5-fluoropyridin-3-yl)methyl)amino)thieno[3,2-d]pyrimidin-4-yl)methanone] | 28.33 | 100 to 500 | > 500 | –
CO[C@@H](C)CNC(=O)c1nc(N[C@@H](C)c2cccnc2)nc2cc(C)sc12 [Example Z399, N—((S)-2-Methoxypropyl)-6-methyl-2-(((S)-1-(pyridin-3-yl)ethyl)amino)thieno[3,2-d]pyrimidine-4-carboxamide] | – | 10 to 50 | > 500 | 161.94
O=C(c1nc(NC(CO)c2cccnc2)nc2ccsc12)N1CCCC1 (centres unmarked) [Example Z270, (2-((2-Hydroxy-1-(pyridin-3-yl)ethyl)amino)thieno[3,2-d]pyrimidin-4-yl)(pyrrolidin-1-yl)methanone] | 27.81 | 10 to 50 | > 500 | –
O=C(c1nc(NCc2ccc(C(F)(F)F)nc2)nc2ccsc12)N1CC[C@H](O)C1 [Example Z75, (S)-(3-Hydroxypyrrolidin-1-yl)(2-(((6-(trifluoromethyl)pyridin-3-yl)methyl)amino)thieno[3,2-d]pyrimidin-4-yl)methanone] | 1.00 | > 500 | > 500 | –
2-(((5-Fluoropyridin-3-yl)methyl)amino)-N-((tetrahydro-2H-pyran-4-yl)methyl)thieno[3,2-d]pyrimidine-4-carboxamide [Example Z219] | 8.45 | 10 to 50 | 100 to 500 | –
CO[C@@H]1CCN(C(=O)c2nc(N[C@@H](C)c3ccccn3)nc3c(C)csc23)C1 [Example Z441, ((R)-3-Methoxypyrrolidin-1-yl)(7-methyl-2-(((S)-1-(pyridin-2-yl)ethyl)amino)thieno[3,2-d]pyrimidin-4-yl)methanone] | – | 10 to 50 | 10 to 50 | 1.21
O=C(c1nc(NCc2cccnn2)nc2ccsc12)N1CCCC1 [Example Z43, (2-((Pyridazin-3-ylmethyl)amino)thieno[3,2-d]pyrimidin-4-yl)(pyrrolidin-1-yl)methanone] | 33.44 | 100 to 500 | > 500 | –
Cc1cncc(CNc2nc(C(=O)N3CC[C@H](O)C3)c3sccc3n2)c1 [Example Z56, (S)-(3-Hydroxypyrrolidin-1-yl)(2-(((5-methylpyridin-3-yl)methyl)amino)thieno[3,2-d]pyrimidin-4-yl)methanone] | 50.76 | 100 to 500 | > 500 | –
COc1ccc(CNc2nc(C(=O)N3CCCC3)c3sccc3n2)cc1OC [Example Z38, (2-((3,4-Dimethoxybenzyl)amino)thieno[3,2-d]pyrimidin-4-yl)(pyrrolidin-1-yl)methanone] | 1.00 | > 500 | > 500 | –
O=C(c1nc(NCc2cccc(O)n2)nc2ccsc12)N1CCCC1 [Example Z70, (2-(((6-Hydroxypyridin-2-yl)methyl)amino)thieno[3,2-d]pyrimidin-4-yl)(pyrrolidin-1-yl)methanone] | 10.89 | 50 to 100 | > 500 | –
CC1(O)CN(C(=O)c2nc(NCc3cncc(F)c3)nc3ccsc23)C1 [Example Z98, (2-(((5-Fluoropyridin-3-yl)methyl)amino)thieno[3,2-d]pyrimidin-4-yl)(3-hydroxy-3-methylazetidin-1-yl)methanone] | 22.37 | 10 to 50 | > 500 | –
C[C@H](Nc1nc(C(=O)N2CC(C)(O)C2)c2sccc2n1)c1ccccn1 [Example Z101, (S)-(3-Hydroxy-3-methylazetidin-1-yl)(2-((1-(pyridin-2-yl)ethyl)amino)thieno[3,2-d]pyrimidin-4-yl)methanone] | – | 10 to 50 | 100 to 500 | –
CCOc1ccc(CNc2nc(C(=O)NCCc3cccc(O)c3)c3sccc3n2)cn1 [Example Z439, 2-(((6-Ethoxypyridin-3-yl)methyl)amino)-N-(3-hydroxyphenethyl)thieno[3,2-d]pyrimidine-4-carboxamide] | – | > 500 | 100 to 500 | 0.29
CNC1CN(C(=O)c2nc(NCc3cncc(F)c3)nc3ccsc23)C1 [Example Z358, (2-(((5-Fluoropyridin-3-yl)methyl)amino)thieno[3,2-d]pyrimidin-4-yl)(3-(methylamino)azetidin-1-yl)methanone] | 69.69 | 100 to 500 | > 500 | –
C[C@H](Nc1nc(C(=O)N2CC[C@H](NC(=O)OCc3ccccc3)C2)c2sccc2n1)c1cncc(F)c1 [Example Z472, Benzyl ((S)-1-(2-(((S)-1-(5-fluoropyridin-3-yl)ethyl)amino)thieno[3,2-d]pyrimidine-4-carbonyl)pyrrolidin-3-yl)carbamate] | – | 10 to 50 | > 500 | 8.61
Cc1cc2nc(N[C@@H](C)c3cccnc3)nc(C(=O)NCC[C@H]3CCNC3)c2s1 [Example Z501, 6-Methyl-2-(((S)-1-(pyridin-3-yl)ethyl)amino)-N-(2-((R)-pyrrolidin-3-yl)ethyl)thieno[3,2-d]pyrimidine-4-carboxamide] | – | > 500 | > 500 | 8.68
Cc1cc2nc(N[C@@H](C)c3cccnc3)nc(C(=O)NCCN3CCOCC3)c2s1 [Example Z378, (S)-6-Methyl-N-(2-morpholinoethyl)-2-((1-(pyridin-3-yl)ethyl)amino)thieno[3,2-d]pyrimidine-4-carboxamide] | 15.93 | 100 to 500 | > 500 | –
CC(Nc1nc(C(=O)N2CC[C@@H](F)C2)c2sccc2n1)c1cccnc1 (stereo partly drawn) [Example Z48, ((R)-3-Fluoropyrrolidin-1-yl)(2-((1-(pyridin-3-yl)ethyl)amino)thieno[3,2-d]pyrimidin-4-yl)methanone] | 9.26 | 10 to 50 | 100 to 500 | –
CO[C@H]1CCN(C(=O)c2nc(N[C@@H](C)c3ccccn3)nc3c(C)csc23)C1 [Example Z440, ((S)-3-Methoxypyrrolidin-1-yl)(7-methyl-2-(((S)-1-(pyridin-2-yl)ethyl)amino)thieno[3,2-d]pyrimidin-4-yl)methanone] | – | 100 to 500 | 100 to 500 | 1.91
C[C@H](Nc1nc(C(=O)NCCC2CCN(C(=O)OC(C)(C)C)CC2)c2sccc2n1)c1ccccn1 [Example Z342, tert-Butyl (S)-4-(2-(2-((1-(Pyridin-2-yl)ethyl)amino)thieno[3,2-d]pyrimidine-4-carboxamido)ethyl)piperidine-1-carboxylate] | 2.11 | 100 to 500 | 100 to 500 | –
C[C@H](Nc1nc(C(=O)NCc2ncc[nH]2)c2sccc2n1)c1ccccn1 [Example Z304, (S)—N-((1H-Imidazol-2-yl)methyl)-2-((1-(pyridin-2-yl)ethyl)amino)thieno[3,2-d]pyrimidine-4-carboxamide] | 2.03 | 100 to 500 | 100 to 500 | –
N[C@H]1CCN(C(=O)c2nc(NCc3cncc(F)c3)nc3ccsc23)C1 [Example Z360, (S)-(3-Aminopyrrolidin-1-yl)(2-(((5-fluoropyridin-3-yl)methyl)amino)thieno[3,2-d]pyrimidin-4-yl)methanone] | 72.24 | 100 to 500 | > 500 | –
